Test results taken from PMC12539867, “Systematic identification of terpene synthases from sacred lotus (Nelumbo nucifera) and heterologous biosynthesis of the insecticidal and antimicrobial compound γ-eudesmol” (Horticulture Research, 2025).

Tests used:
[1] = tested on: T1, NnTPS10; experiment: steady-state kinetics, purified enzyme; type: biochemical, Nelumbo nucifera; conditions: 25 °C, pH 7.5
T1 construct: TPS-a; 565 residues; codon-optimised; purified from E. coli for kinetics; S. cerevisiae JCR27 for mutants; N314, L530, V537; D461-Y537-D541 triad also printed

[2] = biological target: T2, NnTPS5 (Nelumbo nucifera, UniProt A0A822ZHR2); experiment: yeast co-expression with GGPPS and NnTPS6 or NnTPS7, GC-MS of ent-kaurene; type: cell-based; conditions: substrate formed in the cell
T2 construct: gene HUJ06_002290; codon-optimised; S. cerevisiae JCR27 with NnTPS6 or NnTPS7 and GGPPS
T2 sequence (A0A822ZHR2 41-812): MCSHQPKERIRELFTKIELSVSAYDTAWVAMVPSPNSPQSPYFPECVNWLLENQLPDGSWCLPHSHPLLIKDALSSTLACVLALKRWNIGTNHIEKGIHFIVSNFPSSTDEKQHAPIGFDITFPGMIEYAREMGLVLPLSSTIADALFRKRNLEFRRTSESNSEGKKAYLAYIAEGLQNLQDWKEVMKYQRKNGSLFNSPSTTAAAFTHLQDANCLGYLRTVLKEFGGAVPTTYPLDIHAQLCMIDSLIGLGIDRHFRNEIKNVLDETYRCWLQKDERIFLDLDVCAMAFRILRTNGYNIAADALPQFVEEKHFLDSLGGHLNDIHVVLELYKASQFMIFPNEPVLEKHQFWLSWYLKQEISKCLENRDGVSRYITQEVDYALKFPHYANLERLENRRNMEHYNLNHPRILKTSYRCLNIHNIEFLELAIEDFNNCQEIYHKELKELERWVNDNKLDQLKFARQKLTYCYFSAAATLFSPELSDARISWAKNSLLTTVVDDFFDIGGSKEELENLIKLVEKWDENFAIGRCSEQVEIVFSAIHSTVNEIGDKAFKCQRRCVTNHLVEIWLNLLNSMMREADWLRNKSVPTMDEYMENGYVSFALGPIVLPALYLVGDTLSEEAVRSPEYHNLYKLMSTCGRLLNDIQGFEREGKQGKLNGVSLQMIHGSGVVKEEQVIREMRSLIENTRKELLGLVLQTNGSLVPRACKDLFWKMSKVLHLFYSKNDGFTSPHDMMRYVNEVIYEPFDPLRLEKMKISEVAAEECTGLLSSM

Structure (SMILES)	Km [1]	yeast co-expression with GGPPS and NnTPS6 or NnTPS7, GC-MS of ent-kaurene [2]
CC(C)=CCC/C(C)=C/CC/C(C)=C/COP(=O)(O)OP(=O)(O)O [FPP]	16.7 µM	–
C=C1CC[C@@H]2C(C)(C)CCC[C@@]2(C)[C@@H]1CC/C(C)=C/COP(=O)(O)OP(=O)(O)O [ent-CPP]	–	combining NnTPS6, NnTPS5, and GGPPS, a new product (D1) can be identified as ent-kaurene
